Data published in patent publication US12264146B2, “Rho kinase inhibitor, method for preparing same and uses thereof” (BEIJING INCREASE INNOVATIVE DRUG CO., LTD., priority 2018, dated 2025).

Tests used:
[1] = tested on: subarachnoid hemorrhage in rats; assay: Rat subarachnoid hemorrhage (SAH) model by intravascular puncture, Sugawara bleeding score; assay type: in vivo; set-up: dose or concentration left out as unconfirmed; conditions: tail vein injection, 2 administrations 4 h apart, scored 24 h after first administration (Sugawara)
Protocol: Rat subarachnoid hemorrhage (SAH) model was built by intravascular puncture. After being weighed, the rats were anesthetized with sodium pentobarbital (50 mg/kg) or chloral hydrate (300 mg/kg) by intraperitoneal injection, then fixed on their back and maintained the animal's body temperature at about 37° C. The rats' neck skin was shaved for surgery, a median incision was made on the neck, and muscle and fascia were separated along the inner edge of stemocleidomastoid muscle to expose the main and bifurcation of right common carotid artery, and expose the external and internal carotid arteries.
The bifurcation of internal carotid artery was gently clamped with ophthalmic forceps, the bifurcation of the internal carotid artery and the external carotid artery was pierced with a 6-gauge syringe needle, the ophthalmic forceps holding the bifurcation of internal carotid artery was slightly loosen, and No. 3 fishing thread was used to perform a puncture at the bleeding point, the ophthalmic forceps on the internal carotid artery was loosen, and the fishing thread was inserted into skull. […] After staying for 15 seconds, the thread for puncture was completely removed, and the skin was sutured after compression to stop the bleeding. 1.6 million units of penicillin potassium (400,000 units/ml, 0.2 ml/rat) was intramuscularly injected to avoid wound infection. For the sham operation group, the thread for puncture was removed when resistance was felt without piercing the bifurcation of the anterior cerebral artery and the middle cerebral artery, while the remaining operation steps were the same as the model group. After the operation, the rats were transferred to a thermal insulation blanket, then transferred to a squirrel cage when they were basically awake, and kept normally.
In this test experimental, 32 groups were set, i.e., Groups 1 to 32, in which Group 1 was a normal control group (healthy rats), Group 2 was a sham operation control group (not modeling by puncture), Group 3 was a model control group (modeling by puncture, administrated with normal saline), Group 4 was a positive control group (modeling by puncture, administrated with fasudil hydrochloride injection), and Groups 5 to 32 were test groups of the compounds of the present application (modeling by puncture, respectively administrated with the compounds of the present application); and there were 8 animals (purchased from SPF (Beijing) Biotechnology Co., Ltd., the certificate number was SYXK (Beijing) 2016-0002) in each group, half of them were female and half of them were male. The animals were subjected to fasting for 12 to 18 hours without prohibition of drinking water before modeling. […] The rats were euthanized 24 h after the first administration, and the brains were taken. According to Sugawara's method (Reference: Sugawara T, Ayer R, Jadhav V, et al. A new grading system evaluating bleeding scale in filament perforation subarachnoid hemorrhage rat model. J Neurosci Methods. 2008, 167(2):327-34), the subarachnoid hemorrhage amounts were scored, and the scoring results were as follows: […]

[2] = Toxicity test on endothelial cells EA.hy926, CCK-8 cell viability; assay type: cell-based; conditions: human, 1000~0.32 μmol/L, 5-fold dilution, read-out: IC50 of Test compound (cytotoxicity on EA.hy926 cells)
Protocol: In this test example, 31 groups, i.e., Groups 1 to 31, were set, in which Group 1 was a blank control group, Group 2 was a normal control group, Group 3 was a positive control group, and Groups 4 to 31 were test groups of the compounds of the present application. The specific test operation comprised: 100 μL of endothelial cells EA.hy926 (purchased from Suzhou Beina Chuanglian Biotechnology Co., Ltd.) with a density of 5×10^4 was added to each well of a 96-well plate, and transferred to an incubator at 37° C. with 5% CO2 and saturated humidity conditions and cultured for 24 hours, 100 μL of 2× the test compound solution prepared and diluted with DMEM medium containing 10% fetal bovine serum was added, in which the test compound added in the positive control group was Fasudil hydrochloride (purchased from Beijing Sihuan Pharmaceutical Co., Ltd., SFDA approval number H20173349) solution with different concentrations, an equal volume of DMEM medium was added in the blank control group, an equal volume of PBS buffer was added in the normal control group, and a duplicate well was set for each concentration point. After adding the test compound, the culture was continued in the incubator for 24 hours, then 20 μL of CCK-8 detection solution (purchased from Beijing Solarbio Science & Technology Co., Ltd., Cat. No. CA1210) was added to each well, interacted at 37° C. for 2.5 hours, shaken and mixed well, and then the absorbance value at 450 nm was detected.
OD values were detected, and the cell viability values of test groups of different concentrations were calculated according to the cell viability calculation formula as follows: Cell viability=(Atest group−Ablank control)/(Anormal control−Ablank control)*100%
wherein A represented absorbance value at 450 nm.
Prism6.0 was used to obtain the inhibitor concentration-viability curve and to calculate the IC50 of the test compound, the correlation coefficient R^2>0.99; the inhibitor concentration-viability curves of Fasudil hydrochloride, R-YK1601, R-YK1603, R-YK1606, R-YK1607, R-YK1610 were shown in FIGS. 1 to 6, in which the abscissa was the logarithm on base 10 of the concentration of the test compound, and the ordinate was the cell activity (i.e., cell viability).

prostacyclin (PGI2) = assay: Expression of prostacyclin (PGI2) in EA.Hy926 endothelial cells, ELISA kit; assay type: cell-based; conditions: EA.Hy926 cell supernatant, 24 h
Protocol: (§1) Commercially available cytokine kits were used to detect the effects of the compounds of the present application on vascular endothelium-derived contracting factor endothelin, vascular endothelium-derived relaxing factor endothelial nitric oxide synthase, nitric oxide, and prostacyclin factor. The detection was performed according to the kit instructions. When testing the effect of the compound of the present application on cytokines, a normal control group, a fasudil hydrochloride group, and high-, medium- and low-dose groups of the compounds of the present application were set up for testing. The fasudil hydrochloride used in this test example was purchased from Beijing Sihuan Pharmaceutical Co., Ltd., with the SFDA approval number of H20173349. The EA.Hy926 cells used in this test example were purchased from Suzhou Beina Chuanglian Biotechnology Co., Ltd.
EA.Hy926 cells were taken and inoculated in a 96-well plate at 5×10^4 cells/mL, 100 μL per well, and cultured adherently for 24 hours, then the test compound prepared in DMEM medium was added, and an equal volume of DMEM medium was added in the normal control group, then the cells were cultured at 37° C. for 24 hours, and then the cell supernatant was taken and placed in an EP tube, and centrifuged for 15 min at 3000 r/min and 15° C. The resulting supernatant was transferred to a new EP tube, and then the detection was performed according to the instruction of ELISA kit (purchased from Wuhan Elabscience Biotechnology Co., Ltd., Cat. No. E-EL-0022c), and the detection results were shown in Table 3.

nitric oxide (NO) = assay: Synthesis and secretion of nitric oxide (NO) in EA.Hy926 endothelial cells, NO detection kit; assay type: cell-based; conditions: EA.Hy926 cell supernatant, 24 h
Protocol: as §1
EA.Hy926 cells were inoculated in a 24-well plate at 5×10^5 cells/mL, 400 μL per well, and cultured adherently for 18 hours, then the supernatant was discarded, the test compound prepared in DMEM medium was added, and an equal volume of DMEM medium was added in the normal control group, then the cells was cultured for 24 h in incubator, and then the cell supernatant was collected and detected according to the instructions of NO detection kit (purchased from Beyotime Institute of Biotechnology, Cat. No. 062617171017), and the detection results were shown in Table 5.

For `C[C@@H]1CNCCCN1S(=O)(=O)c1cccc2c(O)ncc(C3CC3)c12` [Compound R-YK1600-1, (R)-4-cyclopropyl-5-((2-methyl-1,4-diazacycloheptan-1-yl)sulfonyl)isoquinolin-1-ol], the “Cerebral hemorrhage volume score (x ± s)” value [1] was 13.37 ± 2.56, the IC50 at 24 h [2] was 188 µM and the “expression of prostacyclin in endothelial cells: Detection result of test compound at low dose (0.4 μM)” value (“expression of prostacyclin … (0.4 μM)” for short) (prostacyclin (PGI2)) was 243.20 ± 2.28 pg/mL. For the same molecule, the “expression of prostacyclin in endothelial cells: Detection result of test compound at medium dose (2 μM)” value (“expression of prostacyclin … (2 μM)” for short) (prostacyclin (PGI2)) was 242.34 ± 7.96 pg/mL, the “expression of prostacyclin in endothelial cells: Detection result of test compound at high dose (10 μM)” value (“expression of prostacyclin … (10 μM)” below) (prostacyclin (PGI2)) was 247.68 ± 3.34 pg/mL and the “nitric oxide secretion in endothelial cells: Detection result of test compound at low dose (0.4 μM)” value (from here on “nitric oxide secretion … (0.4 μM)”) (nitric oxide (NO)) was 1.012 ± 0.053 μm. The “nitric oxide secretion in endothelial cells: Detection result of test compound at medium dose (2 μM)” value (“nitric oxide secretion … (2 μM)” for short) (nitric oxide (NO)) was 1.099 ± 0.201 μm and the “nitric oxide secretion in endothelial cells: Detection result of test compound at high dose (10 μM)” value (“nitric oxide secretion … (10 μM)” below) (nitric oxide (NO)) was 1.148 ± 0.251 μm.

With `COc1ncc(C2CC2)c2c(S(=O)(=O)N3CCCNC[C@H]3C)cccc12` [Compound R-YK1600-2, (R)-4-cyclopropyl-1-methoxy-5-((2-methyl-1,4-diazacycloheptan-1-yl)sulfonyl)isoquinoline] the “Cerebral hemorrhage volume score (x ± s)” value [1] was 13.59 ± 2.67, the IC50 at 24 h [2] was 145 µM and the “expression of prostacyclin … (0.4 μM)” value (prostacyclin (PGI2)) was 241.55 ± 0.12 pg/mL. The “expression of prostacyclin … (2 μM)” value (prostacyclin (PGI2)) was 245.98 ± 11.41 pg/mL, the “expression of prostacyclin … (10 μM)” value (prostacyclin (PGI2)) was 249.23 ± 0.75 pg/mL and the “nitric oxide secretion … (0.4 μM)” value (nitric oxide (NO)) was 0.982 ± 0.096 μm. For the same molecule, the “nitric oxide secretion … (2 μM)” value (nitric oxide (NO)) was 1.037 ± 0.062 μm and the “nitric oxide secretion … (10 μM)” value (nitric oxide (NO)) was 1.139 ± 0.263 μm.

With `C[C@@H]1CNCCCN1S(=O)(=O)c1cccc2c(O)nccc12` [Compound R-YK1601, (R)-5-((2-methyl-1,4-diazacycloheptan-1-yl)sulfonyl)isoquinolin-1-ol] the “Cerebral hemorrhage volume score (x ± s)” value [1] was 11.75 ± 2.05, the IC50 at 24 h [2] was 686 µM and the “expression of prostacyclin … (0.4 μM)” value (prostacyclin (PGI2)) was 253.00 ± 5.55 pg/mL. The “expression of prostacyclin … (2 μM)” value (prostacyclin (PGI2)) was 253.52 ± 55.60 pg/mL, the “expression of prostacyclin … (10 μM)” value (prostacyclin (PGI2)) was 227.01 ± 16.23 pg/mL and the “nitric oxide secretion … (0.4 μM)” value (nitric oxide (NO)) was 0.806 ± 0.057 μm. For the same molecule, the “nitric oxide secretion … (2 μM)” value (nitric oxide (NO)) was 0.896 ± 0.147 μm and the “nitric oxide secretion … (10 μM)” value (nitric oxide (NO)) was 1.131 ± 0.134 μm.

For `COc1nccc2c(S(=O)(=O)N3CCCNC[C@H]3C)cccc12` [Compound R-YK1602, (R)-1-methoxy-5-((2-methyl-1,4-diazacycloheptan-1-yl)sulfonyl)isoquinoline], the “Cerebral hemorrhage volume score (x ± s)” value [1] was 11.95 ± 2.04, the IC50 at 24 h [2] was 433 µM and the “expression of prostacyclin … (0.4 μM)” value (prostacyclin (PGI2)) was 248.71 ± 19.98 pg/mL. The “expression of prostacyclin … (2 μM)” value (prostacyclin (PGI2)) was 263.34 ± 15.04 pg/mL, the “expression of prostacyclin … (10 μM)” value (prostacyclin (PGI2)) was 241.51 ± 16.58 pg/mL and the “nitric oxide secretion … (0.4 μM)” value (nitric oxide (NO)) was 0.878 ± 0.006 μm. For the same molecule, the “nitric oxide secretion … (2 μM)” value (nitric oxide (NO)) was 0.914 ± 0.032 μm and the “nitric oxide secretion … (10 μM)” value (nitric oxide (NO)) was 1.005 ± 0.006 μm.

For `C[C@@H]1CNCCCN1S(=O)(=O)c1cccc2cnccc12` [Compound R-YK1603, (R)-5-((2-methyl-1,4-diazacycloheptan-1-yl)sulfonyl)isoquinoline], the “Cerebral hemorrhage volume score (x ± s)” value [1] was 12.06 ± 1.98, the IC50 at 24 h [2] was 256 µM and the “expression of prostacyclin … (0.4 μM)” value (prostacyclin (PGI2)) was 262.30 ± 0.77 pg/mL. For the same molecule, the “expression of prostacyclin … (2 μM)” value (prostacyclin (PGI2)) was 272.58 ± 4.40 pg/mL, the “expression of prostacyclin … (10 μM)” value (prostacyclin (PGI2)) was 243.73 ± 15.66 pg/mL and the “nitric oxide secretion … (0.4 μM)” value (nitric oxide (NO)) was 1.207 ± 0.000 μm. For the same molecule, the “nitric oxide secretion … (2 μM)” value (nitric oxide (NO)) was 0.743 ± 0.070 μm and the “nitric oxide secretion … (10 μM)” value (nitric oxide (NO)) was 0.910 ± 0.025 μm.

In the case of `C[C@@H]1CNCCCN1S(=O)(=O)c1cccc2c(O)ncc(F)c12` [Compound R-YK1604, (R)-4-fluoro-5-((2-methyl-1,4-diazacycloheptan-1-yl)sulfonyl)isoquinolin-1-ol], the “Cerebral hemorrhage volume score (x ± s)” value [1] was 12.58 ± 1.96, the IC50 at 24 h [2] was 210 µM and the “expression of prostacyclin … (0.4 μM)” value (prostacyclin (PGI2)) was 280.40 ± 9.89 pg/mL. The “expression of prostacyclin … (2 μM)” value (prostacyclin (PGI2)) was 279.35 ± 28.69 pg/mL, the “expression of prostacyclin … (10 μM)” value (prostacyclin (PGI2)) was 251.44 ± 42.48 pg/mL and the “nitric oxide secretion … (0.4 μM)” value (nitric oxide (NO)) was 1.009 ± 0.064 μm. For the same molecule, the “nitric oxide secretion … (2 μM)” value (nitric oxide (NO)) was 0.851 ± 0.032 μm and the “nitric oxide secretion … (10 μM)” value (nitric oxide (NO)) was 0.829 ± 0.064 μm.
